System: Rattus norvegicus
Assay: Average percentage HDLC change in 6 cholesterol cholic acid-fed male rats (versus control) after treatment for 8 days at a dose of 100 mg/kg/day
Assay type: functional

Row | SMILES | HDL-C change
1 | C[C@@H]1CN2C(=O)c3ccccc3[C@@](O)(c3ccc(F)cc3)C2=N1 | 105%
2 | C[C@@H]1CN2C(=O)c3ccccc3C(O)(c3ccc(F)cc3)C2=N1 (single isomer, unassigned) | 38%
3 | CC1(C)CN2C(=O)c3ccccc3C(O)(c3ccccc3)C2=N1 (stereo not drawn) | 55%
4 | O=C1c2ccccc2C(O)(c2ccc(F)cc2)C2=NC3(CCCC3)CN12 (stereo not drawn) | 21%
5 | O=C1c2ncccc2C(O)(c2ccc(Cl)cc2)C2=NCCN12 (stereo not drawn) | 49%
6 | O=C1c2ccccc2C(O)(c2ccc(F)cc2)C2=NCCN12 (stereo not drawn) | 0%
7 | CC1(C)CN2C(=O)c3ccccc3C(O)(c3ccc(F)cc3)C2=N1 (stereo not drawn) | 90%
8 | O=C1c2ccccc2C(O)(c2ccc(F)cc2)C2=NCCCN12 (stereo not drawn) | 22%

Reference: ChEMBL document CHEMBL1134163, “Design and synthesis of tricyclic derivatives as high density lipoprotein cholesterol enhancers” (2001)
